# Patent US20080063628A1, “METHODS TO PROMOTE CELL DIFFERENTIATION” (priority 2006, published 2008)
# Legend:
# [1] = tested on: Neonatal fibroblasts (Hs27); assay: Trichostatin A 48 h treatment, gene expression by Real-Time PCR (Example 1); format: cell-based, human
# Protocol: Neonatal fibroblasts, also designated Hs27, were derived from human foreskins and obtained from the American Type Culture Collection (ATCC). Panc-1 cells are a transformed cell line derived from a pancreatic epitheloid carcinoma of ductal origin, also obtained from ATCC.
# Fibroblasts or Panc-1 cells were seeded into a 6-well tissue culture plate at a density of 50,000 cells/cm^2. Both cell types were cultured in medium containing 10% FBS and DMEM under standard cell culture conditions (37° C., 5% CO2). After reaching confluence (2-3 days), trichostatin A diluted in dimethyl sulfoxide (DMSO) and medium was added at either 2.5 μM or 5 μM to the cultures. Parallel cultures were treated with an equivalent concentration of DMSO as a vehicle control.
# RNA samples were obtained from the treated cultures 48 hours after the addition of trichostatin A or DMSO. The culture medium was removed, the cells were washed with phosphate buffered saline (PBS), and RLT Lysis buffer containing β-mercaptoethanol (Qiagen) was added. The samples were homogenized using Qiashredder columns (Qiagen), and RNA was purified using the RNeasy Mini Kit (Qiagen). RNA quantity and quality was determined using a spectrophotometer, and cDNA was made using the iScript cDNA synthesis kit (BioRad).
# The expression levels of Sox17, HNF-3 beta, Pdx-1, insulin, and glucagon were determined by Real-Time PCR (RT-PCR), as described in Example 15. Samples of 20 ng cDNA were used in each reaction. RT-PCR reactions were performed on the Applied Biosystems 7500, and data was analyzed using the accompanying software. Human pancreas cDNA was included as a positive control. Results were normalized against GAPDH expression levels.
# (§1) Real-time PCR amplifcation and quantitative analysis. Unless otherwise stated, all reagents were purchased from Applied Biosystems. Real-time PCR reactions were performed using the ABI PRISM™ 7500 Sequence Detection System. TAQMAN™ FAST UNIVERSAL PCR MASTER MIX™ (ABI, CA) was used with 20 ng of reverse transcribed RNA in a total reaction volume of 20 μl. Each cDNA sample was run in duplicate to allow correction of pipetting errors. Primers and FAM-labeled TAQMAN™ probes were used at concentrations of 200 nM. The level of expression for each target gene was normalized using the pre-developed Applied Biosystem's human glyceraldehyde-3-phosphate dehydrogenase (GAPDH) endogenous control kit. Primers and probes were designed using either ABI PRISM PRIMER EXPRESS™ software or a pre-developed ABI gene analysis kit. For each gene, either one of the primers or the probe were designed to be exon-boundary spanning. This eliminated the possibility of the primers/probe binding to any genomic DNA present. The primer and probe sets are listed as follows: Pdx-1 (Hs00426216), Insulin (Hs00355773), glucagon (Hs00174967), and FoxA2 (HNF 3-beta) (Hs00232764). The remaining primers were designed using the PRIMERS program (ABI, CA). After an initial 95° C. incubation for 20 sec, samples were cycled 40 times in two stages: a denaturation step at 95° C. for 3 sec, followed by an annealing/extension step at 60° C. for 30 sec.
# (§2) For each primer/probe set, a cycle time value was determined as the cycle number at which the fluorescence intensity of the PCR reaction reached a specific value in the middle of the exponential region of amplification. An increase in expression of a gene corresponded to a decrease in the number of cycles required for the fluorescence intensity to reach this value.
# [2] = tested on: late passage pancreatic-derived stromal cells; assay: Chronic trichostatin A treatment, gene expression by RT-PCR (Example 5); format: cell-based, human
# Protocol: Pancreatic-derived stromal cells were obtained according to the methods described in Example 13. Cells were seeded into a 24-well tissue culture plate at a density of 5000/cm^2 and cultured in DMEM with 10% FBS under standard cell culture conditions until confluent. After the cells reached confluency, sample wells were treated with either 1.25 μM or 2.5 μM trichostatin A diluted in DMSO and medium; control wells received DMSO at an equivalent concentration. At 24 hour intervals over the three day culture period, cultures underwent a complete medium change, and a fresh dilution of trichostatin A or DMSO was added as appropriate. RNA samples were obtained from treated cultures daily after the initial addition of trichostatin A or DMSO. Culture medium was removed, cells were washed with PBS, and RLT lysis buffer with β-mercaptoethanol (Qiagen) was added. RNA was purified using the RNeasy Mini Kit (Qiagen), and RNA quantity and quality was determined using a spectrophotometer. cDNA was made using the iScript cDNA synthesis kit (BioRad).
# Expression levels of Sox17, HNF-3 beta, Pdx-1, insulin, and glucagon were determined by RT-PCR. Samples of 20 ng cDNA were used in each reaction, which was performed on the Applied Biosystems 7500, according to the methods described in Example 15. Data were analyzed using the accompanying software. Human pancreas cDNA was included as a control. Results were normalized against GAPDH expression levels.
# as §1, §2
# [3] = 1.25 μM renewed daily, 24 hours
# [4] = 1.25 μM renewed daily, 48 hours
# [5] = 1.25 μM renewed daily, 72 hours
smiles,measurement,setting,value
CC(/C=C/C(=O)NO)=C\[C@@H](C)C(=O)c1ccc(N(C)C)cc1 [trichostatin A],GAPDH gene expression,[1]; 2.5 μM,+++ (detectable at less than 35 cycles by RT-PCR with SE less than 0.9)
same,HNF-3 beta gene expression,[1]; 2.5 μM,+++ (detectable at less than 35 cycles by RT-PCR with SE less than 0.9)
same,Insulin gene expression,[1]; 2.5 μM,nd (not detectable at >40 cycles by RT-PCR)
same,PDX-1 gene expression,[1]; 2.5 μM,+ (detectable at greater than 35–40 cycles by RT-PCR)
same,Sox17 gene expression,[1]; 2.5 μM,+++ (detectable at less than 35 cycles by RT-PCR with SE less than 0.9)
same,glucagon gene expression,[1]; 2.5 μM,+++ (detectable at less than 35 cycles by RT-PCR with SE less than 0.9)
same,GAPDH gene expression,[1]; 5.0 μM,+++ (detectable at less than 35 cycles by RT-PCR with SE less than 0.9)
same,HNF-3 beta gene expression,[1]; 5.0 μM,+++ (detectable at less than 35 cycles by RT-PCR with SE less than 0.9)
same,Insulin gene expression,[1]; 5.0 μM,nd (not detectable at >40 cycles by RT-PCR)
same,PDX-1 gene expression,[1]; 5.0 μM,+ (detectable at greater than 35–40 cycles by RT-PCR)
same,Sox17 gene expression,[1]; 5.0 μM,+++ (detectable at less than 35 cycles by RT-PCR with SE less than 0.9)
same,glucagon gene expression,[1]; 5.0 μM,+++ (detectable at less than 35 cycles by RT-PCR with SE less than 0.9)
same,HNF-3 beta gene expression,[2]; [3],+++ (detectable at less than 35 cycles by RT-PCR with std error less than 0.9)
same,Insulin gene expression,[2]; [3],nd (not detectable at >40 cycles by RT-PCR)
same,PDX-1 gene expression,[2]; [3],+ (detectable between 35 and 40 cycles by RT-PCR)
same,Sox17 gene expression,[2]; [3],+++ (detectable at less than 35 cycles by RT-PCR with std error less than 0.9)
same,glucagon gene expression,[2]; [3],+ (detectable between 35 and 40 cycles by RT-PCR)
same,HNF-3b gene expression,[2]; [4],++ (detectable at less than 35 cycles by RT-PCR with std error greater than 0.9)
same,Insulin gene expression,[2]; [4],nd (not detectable at >40 cycles by RT-PCR)
same,PDX-1 gene expression,[2]; [4],+++ (detectable at less than 35 cycles by RT-PCR with std error less than 0.9)
same,Sox17 gene expression,[2]; [4],+++ (detectable at less than 35 cycles by RT-PCR with std error less than 0.9)
same,glucagon gene expression,[2]; [4],+ (detectable between 35 and 40 cycles by RT-PCR)
same,HNF-3b gene expression,[2]; [5],+++ (detectable at less than 35 cycles by RT-PCR with std error less than 0.9)
same,Insulin gene expression,[2]; [5],nd (not detectable at >40 cycles by RT-PCR)
same,PDX-1 gene expression,[2]; [5],+++ (detectable at less than 35 cycles by RT-PCR with std error less than 0.9)
same,Sox17 gene expression,[2]; [5],+++ (detectable at less than 35 cycles by RT-PCR with std error less than 0.9)
same,glucagon gene expression,[2]; [5],+ (detectable between 35 and 40 cycles by RT-PCR)
same,HNF-3 beta gene expression,"[2]; 2.5 μM renewed daily, 24 hours",+ (detectable between 35 and 40 cycles by RT-PCR)
same,Insulin gene expression,"[2]; 2.5 μM renewed daily, 24 hours",nd (not detectable at >40 cycles by RT-PCR)
same,PDX-1 gene expression,"[2]; 2.5 μM renewed daily, 24 hours",+++ (detectable at less than 35 cycles by RT-PCR with std error less than 0.9)
same,Sox17 gene expression,"[2]; 2.5 μM renewed daily, 24 hours",+++ (detectable at less than 35 cycles by RT-PCR with std error less than 0.9)
same,glucagon gene expression,"[2]; 2.5 μM renewed daily, 24 hours",nd (not detectable at >40 cycles by RT-PCR)
same,HNF-3b gene expression,"[2]; 2.5 μM renewed daily, 48 hours",+ (detectable between 35 and 40 cycles by RT-PCR)
same,Insulin gene expression,"[2]; 2.5 μM renewed daily, 48 hours",nd (not detectable at >40 cycles by RT-PCR)
same,PDX-1 gene expression,"[2]; 2.5 μM renewed daily, 48 hours",+++ (detectable at less than 35 cycles by RT-PCR with std error less than 0.9)
same,Sox17 gene expression,"[2]; 2.5 μM renewed daily, 48 hours",+++ (detectable at less than 35 cycles by RT-PCR with std error less than 0.9)
same,glucagon gene expression,"[2]; 2.5 μM renewed daily, 48 hours",+ (detectable between 35 and 40 cycles by RT-PCR)
same,HNF-3b gene expression,"[2]; 2.5 μM renewed daily, 72 hours",+++ (detectable at less than 35 cycles by RT-PCR with std error less than 0.9)
same,Insulin gene expression,"[2]; 2.5 μM renewed daily, 72 hours",nd (not detectable at >40 cycles by RT-PCR)
same,PDX-1 gene expression,"[2]; 2.5 μM renewed daily, 72 hours",+ (detectable between 35 and 40 cycles by RT-PCR)
same,Sox17 gene expression,"[2]; 2.5 μM renewed daily, 72 hours",+++ (detectable at less than 35 cycles by RT-PCR with std error less than 0.9)
same,glucagon gene expression,"[2]; 2.5 μM renewed daily, 72 hours",nd (not detectable at >40 cycles by RT-PCR)
